Series [1] concerns the target T1, CB1R–5HT2AR heteromer (Homo sapiens, UniProt P28223).
T1 construct: expressed in transfected cells; host or cells: HEK-293T / HEK-293
The series can be described thus: cAMP production (HTRF), decrease in FK-induced cAMP. Format: cell-based. The conditions noted are these: for FK-induced cAMP production after agonist: agonist 100 nM, all groups. How it is done: Sequences encoding YFP Venus protein amino acid residues 1–155 and 156–238 were subcloned in the pcDNA3.1 vector to obtain the YFP Venus hemitruncated proteins. The human cDNAs for 5HT2AR and CB1R, cloned into the pcDNA3.1, were amplified and subcloned as described[18] to give 5HT2AR-cYFP and CB1R-nYFP. Human embryonic kidney (HEK-293T) cells obtained from ATCC were grown in Dulbecco’s modified Eagle’s medium (DMEM) (Gibco) supplemented with 2 mM L-glutamine, 100 μg/mL sodium pyruvate, 100 U/mL penicillin/streptomycin, MEM nonessential amino acid solution (1/100), and 5% (v/v) heat-inactivated fetal bovine serum (FBS) (all supplements from Invitrogen, Paisley, Scotland, UK). Cells were maintained at 37 °C in an atmosphere of 5% CO2. HEK-293T cells were transfected with the corresponding fusion protein cDNA by the polyethylenimine (Sigma) method, as described before.[18]
For cAMP production, homogeneous time-resolved fluorescence energy transfer (HTRF) assays were performed as previously described.[18] […] Fluorescence at 665 nm was analyzed on a PHERAstar Flagship microplate reader equipped with an HTRF optical module (BMG Lab technologies, Offenburg, Germany).

For series [2], the target named is T1, CB1R–5HT2AR heteromer. The series is described as follows: ERK-1/2 phosphorylation assay (α-screen). Format: cell-based.
Protocol: Phosphorylation was determined in white ProxiPlate 384-well microplates (PerkinElmer Life Sciences) by the α-screen bead-based technology using the amplified luminescent proximity homogeneous assay kit (PerkinElmer Life Sciences) and using the Enspire multimode plate reader (PerkinElmer Life Sciences). Phosphorylation is expressed in arbitrary units, ALPHAcounts, as measured by light emission at 520–620 nm of the acceptor beads.
Series [3] deals with mice. The series can be described thus: Novel object recognition test (THC memory impairment). Format: in vivo. The conditions noted are these: mouse; THC 3 mg/kg IP. How it is done: On day 1 (Habituation), mice were habituated for 9 min to the V-maze in which the task was performed. The following day (Training), mice were placed in the V-maze for 9 min, two identical objects were presented and the time that the mice spent exploring each object was recorded. Mice were again placed in the maze 24 h later for 9 min (Test), one of the familiar objects was replaced with a novel object and the total time spent exploring each of the two objects (novel and familiar) was recorded. Object exploration was defined as the orientation of the nose to the object at less than 2 cm. A discrimination index was calculated as the difference between the time spent exploring the novel or familiar object divided by the total time exploring the two objects. A higher discrimination index is considered to reflect greater memory retention for the familiar object.
Thirty min after peptide administration, mice received an IP injection of vehicle (5% v/v of ethanol, 5% v/v of Cremophor-EL, and 90% v/v saline) or 3 mg/kg of THC dissolved in vehicle.

Series [4] relates to mice. The series is described as follows: Hot-plate test (THC-induced analgesia). The note with it: mouse; THC 10 mg/kg IP.
The test system of series [5] is bEnd.3 brain endothelial cells. The note with it: 5(6)-carboxyfluorescein-labeled peptides; bEnd.3 cells; fluorescence in basolateral chamber after 24 h; n = 3–6.
Protocol: bEnd.3 brain endothelial cells (ATCC CRL-2299TM) were grown as a monolayer in DMEM supplemented with 10% FBS and 1% penicillin/streptomycin solution (Gibco, USA). Cells were cultured in a humidified atmosphere of 95% air and 5% CO2 at 37 °C (MCO-18AIC (UV), Sanyo, Japan), with daily medium replacement.
The translocation capabilities of 5(6)-carboxyfluorescein-labeled peptides were determined using a protocol previously described.[30],[31] After the experiment, the integrity of the endothelial barrier was checked by measuring the permeability of a 4 kDa fluorescently labeled dextran (FD4) as previously described.[25] Experiments were carried out on different days using independently grown cell cultures.
Series [6] has as its system mice. The series is described as follows: Immunogenicity: mice immunization and serum ELISA. Format: in vivo, mouse. The note with it: CD-1 mice, IV, 5 consecutive days and boost at day 15; 17 at 100 μg/dose, 17-KLH at 30 μg; sera days 0, 9, 19; plates coated with 17-BSA. How it is done: Experiments were performed at the ICTS “NANBIOSIS” Custom Antibody Service (CAbS, CIBER-BBN, IQAC-CSIC). The immune response to 17 was assessed in outbred Swiss ICR (CD-1) mice strain Hsd:ICR (CD-1) (Envigo RMS, The Netherlands), following the immunization schedule in Figure 7. Animals were housed under standard conditions in the CID-CSIC animal facility. Animal experimental procedures were conducted in accordance with protocols approved by CSIC Committee on Ethics of Animal Experiments and Biosafety, as well as the Spanish National Committee on Ethics and Animal Welfare. Briefly, a first group of 10 female mice received IV doses of 17 (200 μL, 20 mg/kg, PBS + 2% DMSO), a second group of 5 mice received IV doses of 17-KLH conjugate (200 μL, 30 μg) and a third group of 5 mice received IVdoses of PBS (200 μL, negative control). The 17-KLH conjugate, administered with Freund’s adjuvant, was also used to generate polyclonal antibody (positive control) (data not shown). Serum samples were collected by tail vein bleeds on days 0, 9, and 19. […] The peptide-specific humoral response was determined by indirect ELISA. […] Color development was stopped with 4 N H2SO4 (50 μL/well) after 30 min at r.t., and absorbance read at 450 nm. Titers in a log10 scale were expressed as the reciprocal of the last dilution giving the absorbance recorded in the control wells (serum at day 0) plus 2 SD.

A further series relates to trypsin. The note with it: 24 h vs 0 h, HPLC main peak area, mean ± SEM, n = 2. How it is done: Peptide samples, incubated with trypsin, were collected and analyzed as before.[60] For human serum digestion, peptide [1000 μM, 2% dimethyl sulfoxide (DMSO) in filtered H2O] was added to human serum (Sigma, St Louis, Missouri) in a 1:1 ratio and incubated at 37 °C with gentle shaking. At 0 min and 24 h, aliquots were taken and proteolysis was stopped with CH3CN (80% in filtered H2O), chilled at 0 °C for 15 min to precipitate serum proteins, and centrifuged at 13,000 rpm at 4 °C for 10 min. The supernatant was collected and analyzed by analytical RP-HPLC and LC–MS as described before,[60] with a 0–95% linear gradient of CH3CN over 15 min. All experiments are performed in duplicate and data were fitted with GraphPad Prism.

Setting [7] is: RIM 1 μM vs DOI 100 nM, MDL 300 nM vs WIN 100 nM, no peptide.

Here are results for twelve compounds from PMC8486167, “Orally Active Peptide Vector Allows Using Cannabis to Fight Pain While Avoiding Side Effects” (Journal of Medicinal Chemistry, 2021).

Square brackets hold non-standard residues; d marks the D form. Ends that are not written are not given here. Peptide text beside a SMILES is read from it.

T1 sequence (P28223 whole entry, one chain of several): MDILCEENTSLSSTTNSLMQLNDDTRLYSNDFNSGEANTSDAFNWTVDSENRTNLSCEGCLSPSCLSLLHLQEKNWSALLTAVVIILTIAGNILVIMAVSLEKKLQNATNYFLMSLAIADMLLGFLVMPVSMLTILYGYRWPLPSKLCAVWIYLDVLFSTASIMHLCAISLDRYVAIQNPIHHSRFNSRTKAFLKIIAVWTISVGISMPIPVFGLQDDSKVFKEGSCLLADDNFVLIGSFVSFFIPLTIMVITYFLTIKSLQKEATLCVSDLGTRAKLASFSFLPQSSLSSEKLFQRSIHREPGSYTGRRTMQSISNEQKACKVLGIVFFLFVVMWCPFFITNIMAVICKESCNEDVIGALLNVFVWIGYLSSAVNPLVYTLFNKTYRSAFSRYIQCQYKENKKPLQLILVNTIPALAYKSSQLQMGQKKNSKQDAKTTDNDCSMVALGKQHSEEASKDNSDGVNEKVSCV

For `COc1cc(CC(C)N)c(OC)cc1I` (stereo not shown) [DOI, 2,5-dimethoxy-4-iodoamphetamine], on CB1R–5HT2AR heteromer [1] (0.5 μM FK), the “FK-induced cAMP production after agonist” value is “reduced cAMP production”.
As for `Cc1c(C(=O)NN2CCCCC2)nn(-c2ccc(Cl)cc2Cl)c1-c1ccc(Cl)cc1` [RIM, rimonabant], the “antagonist block of the partner receptor's agonist signal (cross-antagonism, pERK)” value on CB1R–5HT2AR heteromer [2] (setting [7]) is listed as “blocked the decrease in FK-induced cAMP or the increase in pERK triggered by the 5HT2AR agonist DOI”. Also, the “antagonist block of the partner receptor's agonist signal (cross-antagonism, cAMP)” value at CB1R–5HT2AR heteromer [1] (setting [7]) is listed as “blocked the decrease in FK-induced cAMP or the increase in pERK triggered by the 5HT2AR agonist DOI”.
For the compound `CCCCCc1cc(O)c2c(c1)OC(C)(C)[C@@H]1CCC(C)=C[C@@H]21` [THC, Δ^9-tetrahydrocannabinol], the “THC effect in novel object recognition test” value with mice [3] was “memory impairment”. The “THC effect in hot-plate test” value with mice [4] was “analgesic effects”.
Regarding `Cc1c(C(=O)c2cccc3ccccc23)c2cccc3c2n1[C@H](CN1CCOCC1)CO3` [WIN, WIN 55,212-2], the “FK-induced cAMP production after agonist” value on CB1R–5HT2AR heteromer [1] (0.5 μM FK) is reported as “reduced cAMP production”.
In the case of `CC[C@@H](C)[C@@H](NC(=O)CNC(=O)[C@@H](C)NC(=O)[C@H](Cc1c[nH]c2ccccc12)NC(=O)[C@H](CC(C)C)NC(=O)[C@@H](NC(=O)[C@H](Cc1ccc(O)cc1)NC(=O)[C@H](CCSC)NC(=O)[C@H](Cc1ccc(O)cc1)NC(=O)[C@H](C)NC(=O)[C@H](Cc1ccc(O)cc1)NC(=O)[C@@H](N)C(C)C)[C@@H](C)CC)C(=O)N[C@H](CC(C)C)C(=O)N[C@H](CCCCN)C(=O)N[C@H](CCCNC(=N)N)C(=O)N[C@H](Cc1c[nH]c2ccccc12)C(N)=O` [compound 13] (H-VYAYMYILW[dA]G[dI][dL][dK][dR][dW]-NH2), the “translocation across the transwell BBB model” value in series [5] was “translocated more efficiently than 14 and 16”.
Same read-out and setting: then `CC[C@@H](C)[C@@H](NC(=O)CNC(=O)[C@@H](C)N)C(=O)N[C@H](CC(C)C)C(=O)N[C@H](CCCCN)C(=O)N[C@H](CCCNC(=N)N)C(=O)N[C@H](Cc1c[nH]c2ccccc12)C(=O)N[C@@H](CCCCN)C(=O)N[C@H](C(=O)N[C@@H](CC(C)C)C(=O)N[C@H](C(=O)N[C@@H](CC(C)C)C(=O)N[C@H](C(=O)N[C@@H](CC(C)C)C(=O)N[C@H](C(=O)N[C@H](C(N)=O)C(C)C)C(C)C)[C@@H](C)CC)C(C)C)[C@@H](C)O` [compound 15] (H-[dA]G[dI][dL][dK][dR][dW]KTLVLILVV-NH2), with “translocated more efficiently than 14 and 16”.
For the compound `CC[C@@H](C)[C@@H](NC(=O)CNC(=O)[C@@H](C)NC(=O)[C@H](NC(=O)[C@@H](Cc1ccc(O)cc1)NC(=O)[C@@H](C)NC(=O)[C@@H](Cc1ccc(O)cc1)NC(=O)[C@@H](CCSC)NC(=O)[C@@H](Cc1ccc(O)cc1)NC(=O)[C@H](NC(=O)[C@@H](CC(C)C)NC(=O)[C@H](N)Cc1c[nH]c2ccccc12)[C@H](C)CC)C(C)C)C(=O)N[C@H](CC(C)C)C(=O)N[C@H](CCCCN)C(=O)N[C@H](CCCNC(=N)N)C(=O)N[C@H](Cc1c[nH]c2ccccc12)C(N)=O` [compound 17] (H-[dW][dL][dI][dY][dM][dY][dA][dY][dV][dA]G[dI][dL][dK][dR][dW]-NH2), in the series with mice [6], the “immunogenicity: peptide-specific antibody response (ELISA titers)” value was “did not evoke any detectable immune response”.
For AGILKRWKTLVLILVV-NH2 [compound 9], the “proteolytic stability: unaltered peptide remaining after trypsin incubation” value with trypsin is recorded as “poor survival”.
Consider “LIKTVFAFCSMLCLLNSTVNPIIYALRGRKKRRQRRR [TM7-Tat, peptide TM7-Tat, used as a negative control]”, for which the “elimination of bidirectional cross-antagonism (pERK)” value at CB1R–5HT2AR heteromer [2] (DOI 100 nM, WIN 100 nM, MDL 300 nM, RIM 1 μM, % of basal, n = 4–9) is recorded as “not observed with TM7-Tat”. The “elimination of bidirectional cross-antagonism (FK-induced cAMP)” value on CB1R–5HT2AR heteromer [1] (DOI 100 nM, WIN 100 nM, MDL 300 nM, RIM 1 μM, 0.5 μM FK, n = 3–6) is “not observed with TM7-Tat”. Moreover, the “influence on G protein coupling preference of 5HT2AR” value on CB1R–5HT2AR heteromer [1] (FK-induced cAMP, 0.5 μM FK, WIN 100 nM or DOI 100 nM, transfected HEK-293T cells, n = 3–6) was 5HT2AR remains Gi-coupled in the presence of interfering peptides.
In the case of SKSKSKKTLVLILVV-NH2 [compound 10], in the series with trypsin, the “proteolytic stability: unaltered peptide remaining after trypsin incubation” value was “poor survival”.
Take VYAYMYILWAGILKRW-NH2 [compound 5]: the “proteolytic stability: unaltered peptide remaining after trypsin incubation” value with trypsin is recorded as “poor survival”.
For the compound VYAYMYILWSKSKSK-NH2 [compound 6], in the series with trypsin, the “proteolytic stability: unaltered peptide remaining after trypsin incubation” value is given as “poor survival”.
